Key:
[1] = Single dose toxicology study in rats (UNC-11.240-RMTD); type: in vivo; conditions: rat
[2] = Stability of C2E2 in plasma (Beagle); type: in vitro ADME, dog; conditions: 37° C., up to two hours
Method: Prior to the study, 975 μL of plasma (Rat, Beagle and Human) was preheated to 37° C. in Eppendorff tubes and the test compound (C2E2) was prepared in DI water (10 mg/mL). The C2E2 was from Lot 050 obtained using Method 2. To initiate the study, 25 μL of the C2E2 solution was added to the pre-heated plasma and briefly vortexed, to mix. At 0, 15, 30, 60 and 120 minutes a 100 μL sample of plasma was taken, an equal volume of cold acetonitrile was added and mixed to precipitate plasma proteins. Samples were centrifuged at 4° C. and 14,000×g for 10 minutes to remove precipitated proteins, the supernatant was collected and the C2E2 concentration determined by HPLC-CAD. All conditions were repeated in triplicate.
HPLC Detection Methods: C2E2 analysis was performed on a prominence HPLC (Shimadzu Corporation, Kyoto, Japan) equipped with a Corona Ultra charged […] detector (CAD) (Thermo scientific, Sunnyvale, Calif.). […]
The gradient is 0.01-34.99 min: 22% B; 35.00-44.99 min: 33% B; 45.00-60.00 min: 38% B. The flow rate is 1.0 mL/min, a Thermo Hypersil ODS column (150 mm 4.6 mm i.d. with 5.0 μm particles) will be used, injection volume will be 10 μL and column oven temperature maintained at 25° C. […] The limit of quantification is 0.35 μg/mL. […]

[3] = test system: Escherichia coli (E. coli) strain WP2uvrA; assay: Bacterial Reverse Mutation Assay (E. coli); type: cell-based; conditions: for Dose level with reductions in mean numbers of revertant colonies (toxicity): WP2uvrA
Method: The objective of this study was to evaluate C2E2 for its ability to induce reverse mutations at the histidine locus in Salmonella typhimurium tester strains TA98, TA100, TA1535, and TA1537, and at the tryptophan locus of Escherichia coli (E. coli) strain WP2uvrA in the presence or absence of an exogenous mammalian metabolic activation system (S9).
C2E2 was evaluated in an initial mutagenicity assay in all five tester strains at dose levels of 5.00, 16.0, 50.0, 160, 500, 1600, and 5000 μg/plate with and without S9. C2E2 was from Lot 050 obtained using Method 2. C2E2 was prepared in Cell Culture Grade Water vehicle and formed a transparent colorless solution. […] The reductions in the numbers of revertant colonies and the enhanced background lawn growth are indicative of C2E2 treatment-related toxicity. With exception to the enhanced background lawn in TA1537 without S9, all other background lawns in all strains, with and without S9, were normal indicating there was appropriate bacterial growth during treatment to express a mutagenic event. There were no relevant increases in the numbers of revertant colonies observed at any dose level with any strain in the absence or presence of S9 metabolic activation.

[4] = test system: polychromatic erythrocytes (PCE) in Sprague-Dawley rat bone marrow; assay: In vivo micronucleus assay
Method: The objective of this study was to evaluate C2E2 for in vivo clastogenic activity and/or disruption of the mitotic apparatus by detecting micronuclei in polychromatic erythrocytes (PCE) in Sprague-Dawley rat bone marrow.
C2E2 was formulated in cell culture grade water vehicle and the dose volume for all treatment groups was 20 mL/kg. The C2E2 was from Lot 050 obtained using Method 2.
Male rats were administered vehicle control, or 500, 1000, or 2000 mg/kg/day of C2E2 once a day for two days separated by approximately 24 hours. The 2000 mg/kg high dose is the limit dose for this assay recommended by ICH S2(R1) guidance. A positive control group of animals received a single 60 mg/kg cyclophosphamide treatment on the second day of dosing. […] Bone marrow was extracted approximately 24 hours after the last treatment in all groups and at least 2000 PCEs per animal were analyzed for the frequency of micronuclei. Cytotoxicity was assessed by scoring the number of PCEs and normochromatic erythrocytes (NCEs) observed while scoring at least 500 erythrocytes per animal.

[5] = Gadolinium complex stability constant by titration; type: binding; conditions: 3-5 mM in 0.1 M KCl, equimolar gadolinium chloride
Method: The stability constant for a complex between C2E2 and gadolinium (i.e., the C2E2-Gd complex) was determined by titration. C2E2 solutions (3-5 mM) were prepared in 0.1 M KCl. Gadolinium chloride was added in equimolar concentrations. The experiment consisted of a titration with base, followed by a titration with acid. After each addition of titrant, a 30 second equilibration time passed before pH measurement with a Seven Easy pH meter and (Ag/AgCl reference) glass electrode (Metler Tolledo). The pKa values previously determined, as described in Example 9, were used to calculate the gadolinium stability constant using […] software. The stability of the C2E2-Gd complex was log K 17.34±1.13, which lies between those of EDTA and DTPA (17.0 and 22.5, respectively).

CCOC(=O)CN(CCN(CCN(CC(=O)O)CC(=O)OCC)CC(=O)O)CC(=O)O [C2E2, 6,9-bis(carboxymethyl)-3-(2-ethoxy-2-oxoethyl)-11-oxo-12-oxa-3,6,9-triazatetradecan-1-oic acid]
Maximum tolerated single dose [1]: 2000 mg/kg | Metabolism in plasma (observation) [2]: minimal or not detected | Dose level with reductions in mean numbers of revertant colonies (toxicity) ([3]; with S9): ≥ 500 μg/plate | Dose level with reductions in mean numbers of revertant colonies (toxicity) ([3]; without S9): 5000 μg/plate | Mutagenicity (reverse mutations at the tryptophan locus) ([3]; up to 5000 μg/plate, with and without S9): negative | Bone marrow cytotoxicity (PCE:NCE ratios) ([4]; 500, 1000, 2000 mg/kg/day x2 days, male rats): absence of treatment-related bone marrow cytotoxicity | Induction of micronuclei in rat bone marrow ([4]; 500, 1000, or 2000 mg/kg/day orally once a day for 2 days, male rats): negative | Clinical signs ([4]; one 2000 mg/kg/day animal, Day 2): audible respiration and hypoactive behavior | Stability of the gadolinium complex, log K [5]: 17.34±1.13
